The results in this text go back to patent US11530186B2, “Inhibitors for the β-catenin / T-cell factor protein-protein interaction” (H. LEE MOFFITT CANCER CENTER AND RESEARCH INSTITUTE, INC., priority 2018, dated 2022).

This test deals with T1, β-catenin/APC-R3 (Homo sapiens, UniProt P35222).
T1 construct: 2000 nM human β-catenin (residues 138-781); 6×histidine (C); made in house; host or cells: E. coli BL21 DE3
T1 sequence (P35222 138-781): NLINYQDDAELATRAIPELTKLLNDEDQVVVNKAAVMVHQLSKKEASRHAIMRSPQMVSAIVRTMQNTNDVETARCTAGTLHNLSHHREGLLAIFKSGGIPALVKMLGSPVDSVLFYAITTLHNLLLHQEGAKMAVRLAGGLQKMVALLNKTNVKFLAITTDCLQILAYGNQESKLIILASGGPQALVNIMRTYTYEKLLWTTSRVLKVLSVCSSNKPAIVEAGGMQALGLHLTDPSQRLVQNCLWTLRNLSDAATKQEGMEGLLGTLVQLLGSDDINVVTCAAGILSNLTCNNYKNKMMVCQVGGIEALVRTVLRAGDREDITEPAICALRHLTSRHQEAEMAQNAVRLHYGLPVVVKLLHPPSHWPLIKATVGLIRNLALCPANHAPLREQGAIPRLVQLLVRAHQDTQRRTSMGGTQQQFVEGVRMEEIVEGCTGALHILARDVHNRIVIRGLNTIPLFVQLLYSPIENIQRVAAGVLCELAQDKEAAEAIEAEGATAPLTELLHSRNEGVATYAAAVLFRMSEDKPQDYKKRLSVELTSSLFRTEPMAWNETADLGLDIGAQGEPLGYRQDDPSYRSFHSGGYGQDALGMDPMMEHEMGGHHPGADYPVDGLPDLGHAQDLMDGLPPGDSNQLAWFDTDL
Kind of test: FP selectivity assay, β-catenin/APC-R3 assay. It is filed as binding. The procedure:
FP Selectivity Assays. Experiments were performed in 96-well Microfluor 2 black plates on a Synergy 2 plate reader (Biotek). The polarization was measured at room temperature with an excitation wavelength at 485 nm and an emission wavelength at 535 nm. The FP experiments were performed in an assay buffer of 25 mM Hepes (pH 7.4), 100 mM NaCl, 0.01% Triton X-100, and 100 μg/ml γ-globulin. The final reaction volume was set to 100 μL. For the β-catenin/Tcf assay, 10 nM human β-catenin (residues 138-781) was incubated with 2.5 nM C-terminally fluorescein-labeled human Tcf4 (residues 7-51) for 30 min at 4° C., and then different concentrations of the compound in assay buffer were added. […] For the β-catenin/cadherin assay, 150 nM human β-catenin (residues 138-781) was incubated with 5 nM C-terminally fluorescent-labeled human E-cadherin (residues 819-873) in assay buffer for 30 min at 4° C. The negative control refers to 5 nM E-cadherin fluorescence tracer and 150 nM β-catenin in assay buffer with no inhibitor presenting. The positive control refers to 5 nM E-cadherin fluorescence tracer in assay buffer. […] The negative control refers to 5 nM APC-R3 fluorescence tracer and 2,000 nM β-catenin in assay buffer without the tested compound. The positive control refers to 5 nM APC-R3 fluorescence tracer in assay buffer. Each assay plate was covered black and gently mixed on an orbital shaker at 4° C. for 2.5 h to reach equilibrium before the polarization values were read. […] The IC50 values were determined by GraphPad Prism 5.0. […] The results were expressed as mean±standard deviation. The Tcf/cahderin selectivity ratio was calculated on the basis of the respective Ki value of the β-catenin/E-cadherin interaction over that of the β-catenin/Tcf4 interaction. The Tcf/APC selectivity ratio was calculated on the basis of the respective Ki value of the β-catenin/APC-R3 interaction over that of the β-catenin/Tcf4 interaction. […]

The Ki is a measure of affinity in units of concentration, obtained from inhibition or displacement.

With `O=C(O)c1ccc2c(c1)c(CCc1ccc(Cl)cc1)c(CCc1nc3ccccc3s1)n2CCc1nn[nH]n1` [Compound 27, 1-(2-(2H-tetrazol-5-yl)ethyl)-2-(2-(benzo[d]thiazol-2-yl)ethyl)-3-(4-chlorophenethyl)-1H-indole-5-carboxylic acid], the Ki (FP selectivity assay, mean ± SD (n = 3)) came to 74 ± 11 µM. Besides, for the setting “FP selectivity assays”, the “selectivity for β-catenin/Tcf over β-catenin/APC PPI” value came out at 80 fold. The “Selectivity Tcf/APC” value (ratio of Ki β-catenin/APC-R3 over Ki β-catenin/Tcf4) was 80.
